In patent US12077537B2 (Gilead Sciences, Inc., priority 2020, dated 2024) one finds EC50 data, which are given here for 16 compounds.

As usually defined, the pEC50 is −log10 of the EC50, conventionally taken in molar units. Low readings indicate a high EC50, high ones a low EC50.

pEC50: −log10 of the molar value.

The test system of the test is HIV-IIIb. The test is described as follows: Antiviral assay in MT4 cells. It is filed as cell-based. Conditions: Human immunodeficiency virus 1, MT4, 120 h; MT-4 cells mixed with HIV-IIIb at m.o.i. 0.003; 5 days at 37° C.; CellTiter-Glo luminescence; 50% decrease in signal, a measure of HIV-1 replication. In outline:
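Compound, tested at ten 3-fold dilutions in quadruplicate in 10% FBS medium, received MT-4 cells pre-mixed 1 hour with HIV-IIIb (m.o.i. 0.003). Protection was read as luminescent cell viability (CellTiter-Glo) after 5 days' culture at 37° C.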

Compound `CC(C)N1CCN(c2nc3nc([C@H](Cc4cc(F)cc(F)c4)NC(=O)Cn4nc(C(F)(F)F)c5c4C(F)(F)[C@@H]4C[C@H]54)c(-c4cccc5c(NS(C)(=O)=O)nn(C)c45)cc3s2)CC1` [Compound 64, 2-((3bS,4aR)-5,5-difluoro-3-(trifluoromethyl)-3b,4,4a,5-tetrahydro-1H-cyclopropa[3,4]cyclopenta[1,2-c]pyrazol-1-yl)-N—((S)-2-(3,5-difluorophenyl)-1-(2-(4-isopropylpiperazin-1-yl)-6-(1-methyl-3-(methylsulfonamido)-1H-indazol-7-yl)thiazolo[4,5-b]pyridin-5-yl)ethyl)acetamide] showed a pEC50 of 8.04.

`Cn1nc(NS(C)(=O)=O)c2cccc(-c3cc4scnc4nc3C(Cc3cc(F)cc(F)c3)NC(=O)Cn3nc(C(F)(F)F)c4c3C(F)(F)[C@@H]3C[C@H]43)c21` (stereo partly drawn) [Compound 129, 2-((3bS,4aR)-5,5-difluoro-3-(trifluoromethyl)-3b,4,4a,5-tetrahydro-1H-cyclopropa[3,4]cyclopenta[1,2-c]pyrazol-1-yl)-N-(2-(3,5-difluorophenyl)-1-(6-(1-methyl-3-(methylsulfonamido)-1H-indazol-7-yl)thiazolo[4,5-b]pyridin-5-yl)ethyl)acetamide] gave a pEC50 of 7.77.

On to `Cc1nc2nc(C(Cc3cc(F)cc(F)c3)NC(=O)Cn3nc(C(F)(F)F)c4c3C(F)(F)[C@@H]3C[C@H]43)c(-c3cccc4c(NS(C)(=O)=O)nn(C)c34)cc2s1` (stereo partly drawn) [Compound 130, 2-((3bS,4aR)-5,5-difluoro-3-(trifluoromethyl)-3b,4,4a,5-tetrahydro-1H-cyclopropa[3,4]cyclopenta[1,2-c]pyrazol-1-yl)-N-(2-(3,5-difluorophenyl)-1-(2-methyl-6-(1-methyl-3-(methylsulfonamido)-1H-indazol-7-yl)thiazolo[4,5-b]pyridin-5-yl)ethyl)acetamide], for which the pEC50 is 8.22.

In turn, `Cn1nc(NS(C)(=O)=O)c2cccc(-c3cc4sc(C#N)nc4nc3C(Cc3cc(F)cc(F)c3)NC(=O)Cn3nc(C(F)(F)F)c4c3C(F)(F)[C@@H]3C[C@H]43)c21` (stereo partly drawn) [Compound 131, N-(1-(2-cyano-6-(1-methyl-3-(methylsulfonamido)-1H-indazol-7-yl)thiazolo[4,5-b]pyridin-5-yl)-2-(3,5-difluorophenyl)ethyl)-2-((3bS,4aR)-5,5-difluoro-3-(trifluoromethyl)-3b,4,4a,5-tetrahydro-1H-cyclopropa[3,4]cyclopenta[1,2-c]pyrazol-1-yl)acetamide] gave a pEC50 of 7.55. This pEC50 lies 0.67 log units lower than the previous one.

`Cn1nc(NS(C)(=O)=O)c2cccc(-c3cc4sc(-c5cn[nH]c5)nc4nc3C(Cc3cc(F)cc(F)c3)NC(=O)Cn3nc(C(F)(F)F)c4c3C(F)(F)[C@@H]3C[C@H]43)c21` (stereo partly drawn) [Compound 132, 2-((3bS,4aR)-5,5-difluoro-3-(trifluoromethyl)-3b,4,4a,5-tetrahydro-1H-cyclopropa[3,4]cyclopenta[1,2-c]pyrazol-1-yl)-N-(2-(3,5-difluorophenyl)-1-(6-(1-methyl-3-(methylsulfonamido)-1H-indazol-7-yl)-2-(1H-pyrazol-4-yl)thiazolo[4,5-b]pyridin-5-yl)ethyl)acetamide] gave a pEC50 of 7.36.

As to `Cn1nc(NS(C)(=O)=O)c2cccc(-c3cc4sc(-c5c[nH]cn5)nc4nc3C(Cc3cc(F)cc(F)c3)NC(=O)Cn3nc(C(F)(F)F)c4c3C(F)(F)[C@@H]3C[C@H]43)c21` (stereo partly drawn) [Compound 133, N-(1-(2-(1H-imidazol-4-yl)-6-(1-methyl-3-(methylsulfonamido)-1H-indazol-7-yl)thiazolo[4,5-b]pyridin-5-yl)-2-(3,5-difluorophenyl)ethyl)-2-((3bS,4aR)-5,5-difluoro-3-(trifluoromethyl)-3b,4,4a,5-tetrahydro-1H-cyclopropa[3,4]cyclopenta[1,2-c]pyrazol-1-yl)acetamide], the pEC50 is 7.36.

With `Cn1cnc(-c2nc3nc(C(Cc4cc(F)cc(F)c4)NC(=O)Cn4nc(C(F)(F)F)c5c4C(F)(F)[C@@H]4C[C@H]54)c(-c4cccc5c(NS(C)(=O)=O)nn(C)c45)cc3s2)c1` (stereo partly drawn) [Compound 134, 2-((3bS,4aR)-5,5-difluoro-3-(trifluoromethyl)-3b,4,4a,5-tetrahydro-1H-cyclopropa[3,4]cyclopenta[1,2-c]pyrazol-1-yl)-N-(2-(3,5-difluorophenyl)-1-(2-(1-methyl-1H-imidazol-4-yl)-6-(1-methyl-3-(methylsulfonamido)-1H-indazol-7-yl)thiazolo[4,5-b]pyridin-5-yl)ethyl)acetamide], the pEC50 was 7.99.

In the case of `Cn1nc(NS(C)(=O)=O)c2c(Cl)ccc(-c3cc4[nH]c(=O)ccc4nc3C(Cc3cc(F)cc(F)c3)NC(=O)Cn3nc(C(F)F)c4c3C(F)(F)[C@@H]3C[C@H]43)c21` (stereo partly drawn) [Compound 135, N-(1-(3-(4-chloro-1-methyl-3-(methylsulfonamido)-1H-indazol-7-yl)-6-oxo-5,6-dihydro-1,5-naphthyridin-2-yl)-2-(3,5-difluorophenyl)ethyl)-2-((3bS,4aR)-3-(difluoromethyl)-5,5-difluoro-3b,4,4a,5-tetrahydro-1H-cyclopropa[3,4]cyclopenta[1,2-c]pyrazol-1-yl)acetamide], the pEC50 was 7.74. This pEC50 is 0.25 log units lower than that of the compound before.

The compound `Cn1nc(NS(C)(=O)=O)c2c(Cl)ccc(-c3cc4c(nc3[C@H](Cc3cc(F)cc(F)c3)NC(=O)Cn3nc(C(F)F)c5c3C(F)(F)[C@@H]3C[C@H]53)CCC(=O)N4)c21` [Compound 136, N—((S)-1-(3-(4-chloro-1-methyl-3-(methylsulfonamido)-1H-indazol-7-yl)-6-oxo-5,6,7,8-tetrahydro-1,5-naphthyridin-2-yl)-2-(3,5-difluorophenyl)ethyl)-2-((3bS,4aR)-3-(difluoromethyl)-5,5-difluoro-3b,4,4a,5-tetrahydro-1H-cyclopropa[3,4]cyclopenta[1,2-c]pyrazol-1-yl)acetamide] showed a pEC50 of 8.37.

In turn, `CC(C)(C)OC(=O)N1CCC[C@H]1c1nc(-c2ccc(C#Cc3nc4nc([C@H](Cc5cc(F)cc(F)c5)NC(=O)Cn5nc(C(F)F)c6c5C(F)(F)CCC6(F)F)c(-c5ccc(F)c(C(N)=O)c5)cc4s3)cc2)c[nH]1` [Compound 137, tert-butyl (S)-2-(4-(4-((6-(3-carbamoyl-4-fluorophenyl)-5-((S)-1-(2-(3-(difluoromethyl)-4,4,7,7-tetrafluoro-4,5,6,7-tetrahydro-1H-indazol-1-yl)acetamido)-2-(3,5-difluorophenyl)ethyl)thiazolo[4,5-b]pyridin-2-yl)ethynyl)phenyl)-1H-imidazol-2-yl)pyrrolidine-1-carboxylate] showed a pEC50 of 6.39.

With `NC(=O)c1cc(-c2cc3sc(C#Cc4ccc(-c5c[nH]c([C@@H]6CCCN6)n5)cc4)nc3nc2[C@H](Cc2cc(F)cc(F)c2)NC(=O)Cn2nc(C(F)F)c3c2C(F)(F)CCC3(F)F)ccc1F` [Compound 138, 5-(5-((S)-1-(2-(3-(difluoromethyl)-4,4,7,7-tetrafluoro-4,5,6,7-tetrahydro-1H-indazol-1-yl)acetamido)-2-(3,5-difluorophenyl)ethyl)-2-((4-(2-((S)-pyrrolidin-2-yl)-1H-imidazol-4-yl)phenyl)ethynyl)thiazolo[4,5-b]pyridin-6-yl)-2-fluorobenzamide], the pEC50 was 6.95.

On to `NC(=O)c1cc(-c2cc3sc(N4CCN(c5ccc6c(c5)OCCO6)CC4)nc3nc2[C@H](Cc2cc(F)cc(F)c2)NC(=O)Cn2nc(C(F)F)c3c2C(F)(F)CCC3(F)F)ccc1F` [Compound 139, (S)-5-(5-(1-(2-(3-(difluoromethyl)-4,4,7,7-tetrafluoro-4,5,6,7-tetrahydro-1H-indazol-1-yl)acetamido)-2-(3,5-difluorophenyl)ethyl)-2-(4-(2,3-dihydrobenzo[b][1,4]dioxin-6-yl)piperazin-1-yl)thiazolo[4,5-b]pyridin-6-yl)-2-fluorobenzamide], for which the pEC50 was 6.26.

With `NC(=O)c1cc(-c2cc3sc(N4CCN(c5ccc(Cl)cc5)CC4)nc3nc2[C@H](Cc2cc(F)cc(F)c2)NC(=O)Cn2nc(C(F)(F)F)c3c2C(F)(F)[C@@H]2C[C@H]32)ccc1F` [Compound 140, 5-(2-(4-(4-chlorophenyl)piperazin-1-yl)-5-((S)-1-(2-((3bS,4aR)-5,5-difluoro-3-(trifluoromethyl)-3b,4,4a,5-tetrahydro-1H-cyclopropa[3,4]cyclopenta[1,2-c]pyrazol-1-yl)acetamido)-2-(3,5-difluorophenyl)ethyl)thiazolo[4,5-b]pyridin-6-yl)-2-fluorobenzamide], the pEC50 is 5.86.

Compound `NC(=O)c1cc(-c2cc3sc(N4CCN(c5ccc(C(F)(F)F)cc5)CC4)nc3nc2[C@H](Cc2cc(F)cc(F)c2)NC(=O)Cn2nc(C(F)(F)F)c3c2C(F)(F)[C@@H]2C[C@H]32)ccc1F` [Compound 141, 5-(5-((S)-1-(2-((3bS,4aR)-5,5-difluoro-3-(trifluoromethyl)-3b,4,4a,5-tetrahydro-1H-cyclopropa[3,4]cyclopenta[1,2-c]pyrazol-1-yl)acetamido)-2-(3,5-difluorophenyl)ethyl)-2-(4-(4-(trifluoromethyl)phenyl)piperazin-1-yl)thiazolo[4,5-b]pyridin-6-yl)-2-fluorobenzamide] showed a pEC50 of 5.74.

Compound `CSc1nc2nc([C@H](Cc3cc(F)cc(F)c3)NC(=O)Cn3nc(C(F)(F)F)c4c3C(F)(F)[C@@H]3C[C@H]43)c(-c3ccc4c(c3)C(=O)NC4)cc2s1` [Compound 142, 2-((3bS,4aR)-5,5-difluoro-3-(trifluoromethyl)-3b,4,4a,5-tetrahydro-1H-cyclopropa[3,4]cyclopenta[1,2-c]pyrazol-1-yl)-N—((S)-2-(3,5-difluorophenyl)-1-(2-(methylthio)-6-(3-oxoisoindolin-5-yl)thiazolo[4,5-b]pyridin-5-yl)ethyl)acetamide] had a pEC50 of 7.41.

Take `O=C(Cn1nc(C(F)(F)F)c2c1C(F)(F)[C@@H]1C[C@H]21)N[C@@H](Cc1cc(F)cc(F)c1)c1nc2nc(-c3ccc4c(c3)C(=O)NC4)sc2cc1-c1ccc2c(c1)C(=O)NC2` [Compound 143, N—((S)-1-(2,6-bis(3-oxoisoindolin-5-yl)thiazolo[4,5-b]pyridin-5-yl)-2-(3,5-difluorophenyl)ethyl)-2-((3bS,4aR)-5,5-difluoro-3-(trifluoromethyl)-3b,4,4a,5-tetrahydro-1H-cyclopropa[3,4]cyclopenta[1,2-c]pyrazol-1-yl)acetamide]: the pEC50 is 7.81.
